The subject of this test is PGM-1 (recombinant isoform PGM100, E155 E190). Kind of test: G6PD-coupled NADPH assay, Lineweaver-Burk. The format is biochemical, Alvinella pompejana. To be noted: 50 mM Tris-HCl pH 7.4, 0.5 M MgCl2 (so in the source), 1.2 mM NADP, 0.1 µM G6PD, G1P 0.2-60 mM, 17 °C. From the text:
G6PD-coupled NADPH assay, Lineweaver-Burk on PGM-1 (recombinant isoform PGM100, E155 E190)

The record followed here is article PMC8872362, “Balanced Polymorphism at the Pgm-1 Locus of the Pompeii Worm Alvinella pompejana and Its Variant Adaptability Is Only Governed by Two QE Mutations at Linked Sites” (Genes, 2022).

Structures are written as SMILES. Like-named read-outs stand apart in the source and are kept apart here.

For `O=P(O)(O)O[C@H]1O[C@H](CO)[C@@H](O)[C@H](O)[C@H]1O` [G1P, α-D-glucose 1-phosphate], the Km runs as follows: (PGM78, natural allele QE, read-out: PGM 78 / 1st Transition) 0.76 ± 0.07 mM; (PGM90, natural allele EQ, read-out: PGM 90 / 1st Transition) 6.25 ± 0.35 mM; (read-out: PGM 100 / 1st Transition) 5.22 ± 0.74 mM.
